Measured values as given in patent US8192962B2, “Processes for detecting toxic substances” (Daikin Industries, Ltd., priority 2001, dated 2012).

System: Mitochondria-located protein genes
Assay: DNA chip mRNA expression in yeast, mitochondria-located protein genes (Table 2)
Format: cell-based, Saccharomyces cerevisiae S288C
Conditions: cells incubated two hours with the chemical substance
Procedure, shortened: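 Values are treated/untreated fluorescence ratios from a whole-genome yeast DNA chip hybridized over 12 hours at 65° C with Cy3- or Cy5-labelled cDNA from poly(A) mRNA. Log-phase S288C yeast in YPD at 25° C had received a single toxic chemical for two hours, dosed to slow growth without killing.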

Structure (SMILES): S=C([S-])NCCNC(=S)[S-].[Zn+2] [(11), zinc N,N′-ethylenebis(dithiocarbamate)]
- The level of expressed mRNA in the presence of chemical substance/The level of expressed mRNA in the absence of chemical substance (yeast gene YJR121W): 0.9
- The level of expressed mRNA in the presence of chemical substance/The level of expressed mRNA in the absence of chemical substance (yeast gene YKL003C): 1.7
- The level of expressed mRNA in the presence of chemical substance/The level of expressed mRNA in the absence of chemical substance (yeast gene YKL016C): 1.3
- The level of expressed mRNA in the presence of chemical substance/The level of expressed mRNA in the absence of chemical substance (yeast gene YKL141W): 1.2
- The level of expressed mRNA in the presence of chemical substance/The level of expressed mRNA in the absence of chemical substance (yeast gene YKL142W): 2.0
- The level of expressed mRNA in the presence of chemical substance/The level of expressed mRNA in the absence of chemical substance (yeast gene YKL148C): 1.5
- The level of expressed mRNA in the presence of chemical substance/The level of expressed mRNA in the absence of chemical substance (yeast gene YKL170W): 0.7
- The level of expressed mRNA in the presence of chemical substance/The level of expressed mRNA in the absence of chemical substance (yeast gene YKL194C): 1.6
- The level of expressed mRNA in the presence of chemical substance/The level of expressed mRNA in the absence of chemical substance (yeast gene YKR066C): 1.3
- The level of expressed mRNA in the presence of chemical substance/The level of expressed mRNA in the absence of chemical substance (yeast gene YLL041C): 1.3
- The level of expressed mRNA in the presence of chemical substance/The level of expressed mRNA in the absence of chemical substance (yeast gene YLR038C): 1.4
- The level of expressed mRNA in the presence of chemical substance/The level of expressed mRNA in the absence of chemical substance (yeast gene YLR259C): 3.0
- The level of expressed mRNA in the presence of chemical substance/The level of expressed mRNA in the absence of chemical substance (yeast gene YLR295C): 1.3
- The level of expressed mRNA in the presence of chemical substance/The level of expressed mRNA in the absence of chemical substance (yeast gene YLR304C): 1.6
- The level of expressed mRNA in the presence of chemical substance/The level of expressed mRNA in the absence of chemical substance (yeast gene YLR348C): 1.3
- The level of expressed mRNA in the presence of chemical substance/The level of expressed mRNA in the absence of chemical substance (yeast gene YLR395C): 1.5
- The level of expressed mRNA in the presence of chemical substance/The level of expressed mRNA in the absence of chemical substance (yeast gene YML054C): 1.4
- The level of expressed mRNA in the presence of chemical substance/The level of expressed mRNA in the absence of chemical substance (yeast gene YML120C): 1.3
- The level of expressed mRNA in the presence of chemical substance/The level of expressed mRNA in the absence of chemical substance (yeast gene YML129C): 1.2
- The level of expressed mRNA in the presence of chemical substance/The level of expressed mRNA in the absence of chemical substance (yeast gene YMR023C): 0.8
- The level of expressed mRNA in the presence of chemical substance/The level of expressed mRNA in the absence of chemical substance (yeast gene YMR035W): 1.5
- The level of expressed mRNA in the presence of chemical substance/The level of expressed mRNA in the absence of chemical substance (yeast gene YMR083W): 1.6
- The level of expressed mRNA in the presence of chemical substance/The level of expressed mRNA in the absence of chemical substance (yeast gene YMR089C): 1.3
- The level of expressed mRNA in the presence of chemical substance/The level of expressed mRNA in the absence of chemical substance (yeast gene YMR152W): 1.2
- The level of expressed mRNA in the presence of chemical substance/The level of expressed mRNA in the absence of chemical substance (yeast gene YMR203W): 2.3
- The level of expressed mRNA in the presence of chemical substance/The level of expressed mRNA in the absence of chemical substance (yeast gene YMR267W): 1.0
- The level of expressed mRNA in the presence of chemical substance/The level of expressed mRNA in the absence of chemical substance (yeast gene YNL055C): 1.9
- The level of expressed mRNA in the presence of chemical substance/The level of expressed mRNA in the absence of chemical substance (yeast gene YNL071W): 1.6
- The level of expressed mRNA in the presence of chemical substance/The level of expressed mRNA in the absence of chemical substance (yeast gene YNL073W): 1.1
- The level of expressed mRNA in the presence of chemical substance/The level of expressed mRNA in the absence of chemical substance (yeast gene YNL104C): 2.1
- The level of expressed mRNA in the presence of chemical substance/The level of expressed mRNA in the absence of chemical substance (yeast gene YNL256W): 0.6
- The level of expressed mRNA in the presence of chemical substance/The level of expressed mRNA in the absence of chemical substance (yeast gene YOL096C): 1.2
- The level of expressed mRNA in the presence of chemical substance/The level of expressed mRNA in the absence of chemical substance (yeast gene YOR020C): 2.5
- The level of expressed mRNA in the presence of chemical substance/The level of expressed mRNA in the absence of chemical substance (yeast gene YOR037W): 1.2
- The level of expressed mRNA in the presence of chemical substance/The level of expressed mRNA in the absence of chemical substance (yeast gene YOR100C): 1.4
- The level of expressed mRNA in the presence of chemical substance/The level of expressed mRNA in the absence of chemical substance (yeast gene YOR130C): 0.6
- The level of expressed mRNA in the presence of chemical substance/The level of expressed mRNA in the absence of chemical substance (yeast gene YOR142W): 1.5
- The level of expressed mRNA in the presence of chemical substance/The level of expressed mRNA in the absence of chemical substance (yeast gene YOR150W): 1.0
- The level of expressed mRNA in the presence of chemical substance/The level of expressed mRNA in the absence of chemical substance (yeast gene YOR176W): 1.4
- The level of expressed mRNA in the presence of chemical substance/The level of expressed mRNA in the absence of chemical substance (yeast gene YOR187W): 1.4
- The level of expressed mRNA in the presence of chemical substance/The level of expressed mRNA in the absence of chemical substance (yeast gene YOR316C): 2.4
- The level of expressed mRNA in the presence of chemical substance/The level of expressed mRNA in the absence of chemical substance (yeast gene YPL040C): 0.9
- The level of expressed mRNA in the presence of chemical substance/The level of expressed mRNA in the absence of chemical substance (yeast gene YPL134C): 1.7
- The level of expressed mRNA in the presence of chemical substance/The level of expressed mRNA in the absence of chemical substance (yeast gene YPL135W): 1.3
- The level of expressed mRNA in the presence of chemical substance/The level of expressed mRNA in the absence of chemical substance (yeast gene YPL215W): 1.1
- The level of expressed mRNA in the presence of chemical substance/The level of expressed mRNA in the absence of chemical substance (yeast gene YPL262W): 1.4
- The level of expressed mRNA in the presence of chemical substance/The level of expressed mRNA in the absence of chemical substance (yeast gene YPR024W): 0.9
- The level of expressed mRNA in the presence of chemical substance/The level of expressed mRNA in the absence of chemical substance (yeast gene YPR037C): 0.9
- The level of expressed mRNA in the presence of chemical substance/The level of expressed mRNA in the absence of chemical substance (yeast gene YPR047W): 1.1
- The level of expressed mRNA in the presence of chemical substance/The level of expressed mRNA in the absence of chemical substance (yeast gene YPR134W): 1.3
